Measured values from US20150025077A1 (COYOTE PHARMACEUTICALS, INC., priority 2012, published 2015).

These compounds were tested on HSP70 (assay: HSP70 levels in Neuro 2a cells, ELISA). Conditions: 10 nM, 48 hrs compound then 24 hrs GGTI-298.
Type: cell-based, mouse
Method: Mouse neuroblastoma 2a cells were cultured in DMEM with 10% FBS for 24 hrs. […] After 24 hrs cells were harvested and lysates were prepared and analyzed by ELISA for HSP70. Compound ID numbers in table refer to structures in Table 1 and Table 2.

Structure (SMILES)	HSP70 level, ELISA signal (absence of compounds normalized as 1.00)
CC(C)=CCC/C(C)=C/CC/C(C)=C/COC(=S)NC1CC1 [Compound 9d, Cyclopropyl 2E, 6E-farnesyl thiocarbamate]	1.05
CC(C)=CCC/C(C)=C/CC/C(C)=C/COC(=S)NCCCN1CCOCC1 [Compound 9k, Morpholinyl-N-3′-propyl 2E, 6E-farnesyl thiocarbamate]	1.13

Same assay, conditions: 100 nM, 48 hrs compound then 24 hrs GGTI-298

Structure (SMILES)	HSP70 level, ELISA signal (absence of compounds normalized as 1.00)
CC(C)=CCC/C(C)=C/CC/C(C)=C/CC/C(C)=C/CCC(C)OC(=O)NC(C)C (racemic) [Compound 23a, 5E, 9E, 13E-Geranylgeranyl-rac-prop-2-yl iso-propyl carbamate]	1.21
CCCCCNC(=O)OC(C)CC/C=C(\C)CC/C=C(\C)CC/C=C(\C)CCC=C(C)C (racemic) [Compound 23b, 5E, 9E, 13E-Geranylgeranyl-rac-prop-2-yl n-pentyl carbamate]	1.13
CC(C)=CCC/C(C)=C/CC/C(C)=C/CC/C(C)=C/CCC(C)OC(=O)NC1CCCC1 (racemic) [Compound 23c, Cyclopentyl 5E, 9E, 13E-geranylgeranyl-rac-prop-2-yl carbamate]	0.96
CC(C)=CCC/C(C)=C/CC/C(C)=C/CC/C(C)=C/CCC(C)OC(=O)NC1CCCCCC1 (racemic) [Compound 23e, Cycloheptyl 5E, 9E, 13E-geranylgeranyl-rac-prop-2-yl carbamate]	0.97
CCCCCCNC(=O)OC(C)CC/C=C(\C)CC/C=C(\C)CC/C=C(\C)CCC=C(C)C (racemic) [Compound 23f, 5E, 9E, 13E-Geranylgeranyl-rac-prop-2-yl n-hexyl carbamate]	0.91
CC(C)=CCC/C(C)=C/CC/C(C)=C/CC/C(C)=C/COC(=O)NCc1ccco1 [Compound 7aa, 2′-Furanyl methyl 2E, 6E, 10E]-geranylgeranyl carbamate]	1.05
CC(C)=CCC/C(C)=C/CC/C(C)=C/CC/C(C)=C/COC(=O)Nc1ccccc1 [Compound 7n, Phenyl 2E, 6E, 10E-geranylgeranyl carbamate]	1.20
COc1ccc(NC(=O)OC/C=C(\C)CC/C=C(\C)CC/C=C(\C)CCC=C(C)C)cc1OC [Compound 7t, 3′,4′-Dimethoxyphenyl 2E, 6E, 10E-geranylgeranyl carbamate]	1.07
CC(C)=CCC/C(C)=C/CC/C(C)=C/CC/C(C)=C/COC(=O)Nc1ccc(C(=O)c2ccccc2)cc1 [Compound 7u, p-Benzoyl phenyl 2E, 6E, 10E-geranylgeranyl carbamate]	1.03
CC(C)=CCC/C(C)=C/CC/C(C)=C/CC/C(C)=C/COC(=O)Nc1cccnc1 [Compound 7z, 3′-Pyridyl 2E, 6E,10E-geranylgeranyl carbamate]	0.96
CC(C)=CCC/C(C)=C/CC/C(C)=C/CC/C(C)=C/COC(=S)Nc1ccccc1 [Compound 10k, Phenyl 2E,6E,10E-geranylgeranyl thiocarbamate]	1.11

Same assay, conditions: 10uM, 48 hrs compound then 24 hrs GGTI-298

Structure (SMILES)	HSP70 level, ELISA signal (absence of compounds normalized as 1.00)
CC(C)=CCC/C(C)=C/CC/C(C)=C/CC/C(C)=C/COC(=O)c1cc([N+](=O)[O-])cc([N+](=O)[O-])c1 [Compound 2g, 2E, 6E, 10E-Geranylgeranyl-3′,5′-dinitrobenzoate]	0.91
COc1cc(C(=O)OC/C=C(\C)CC/C=C(\C)CC/C=C(\C)CCC=C(C)C)cc(OC)c1OC [Compound 2h, 2E, 6E, 10E-Geranylgeranyl-3′,4′,5′-trimethoxybenzoate]	0.94
CCOc1ccccc1C(=O)OC/C=C(\C)CC/C=C(\C)CC/C=C(\C)CCC=C(C)C [Compound 2j, 2E, 6E, 10E-Geranylgeranyl-2′ethoxybenzoate]	0.95
COc1ccc(C(=O)OC/C=C(\C)CC/C=C(\C)CC/C=C(\C)CCC=C(C)C)c(OC)c1 [Compound 2k, 2E, 6E, 10E-Geranylgeranyl-2′,4′-dimethoxybenzoate]	0.88
CC(C)=CCC/C(C)=C/CC/C(C)=C/CC/C(C)=C/COC(=O)c1c(C)cc(C)cc1C [Compound 2l, 2E, 6E, 10E-Geranylgeranyl-2′,4′,6′trimethylbenzoate]	1.05
CC(C)=CCC/C(C)=C/CC/C(C)=C/COS(=O)(=O)c1ccccc1 [Compound 6a, 2E, 6E-Farnesyl benzenesulfonate]	1.11
CC(C)=CCC/C(C)=C/CC/C(C)=C/COS(=O)(=O)c1ccc(C)cc1 [Compound 6b, 2E, 6E-Farnesyl p-toluenesulfonate]	1.18
C=CCNC(=O)OC/C=C(\C)CC/C=C(\C)CC/C=C(\C)CCC=C(C)C [Compound 7k, Allyl 2E, 6E, 10E-geranylgeranyl carbamate]	1.20
CC(C)=CCC/C(C)=C/CC/C(C)=C/CC/C(C)=C/COC(=O)NCc1ccccc1 [Compound 7l, Benzyl 2E, 6E, 10E-geranylgeranyl carbamate]	1.10
CC(C)=CCC/C(C)=C/CC/C(C)=C/CC/C(C)=C/COC(=O)Nc1ccc(C)cc1 [Compound 7o, P-Tolyl 2E, 6E, 10E-geranylgeranyl carbamate]	1.15
CCOC(=O)CNC(=O)OC/C=C(\C)CC/C=C(\C)CC/C=C(\C)CCC=C(C)C [Compound 7p, Ethoxycarbonyl methyl 2E, 6E, 10E-geranylgeranyl carbamate]	1.00
CC(C)=CCC/C(C)=C/CC/C(C)=C/CC/C(C)=C/COC(=O)Nc1cccc2ccccc12 [Compound 7r, 1′-Naphthyl 2E, 6E, 10E-geranylgeranyl carbamate]	0.89
COc1cc(NC(=O)OC/C=C(\C)CC/C=C(\C)CC/C=C(\C)CCC=C(C)C)cc(OC)c1OC [Compound 7v, 3′,4′,5′-Trimethoxyphenyl 2E, 6E, 10E-geranylgeranyl carbamate]	1.13
CC(C)=CCC/C(C)=C/CC/C(C)=C/CC/C(C)=C/COC(=O)Nc1ccc2c(c1)Cc1ccccc1-2 [Compound 7x, 9′H-Fluoren-2′-yl isocyanate 2E, 6E, 10E-geranylgeranyl carbamate]	1.00
CC(C)=CCC/C(C)=C/CC/C(C)=C/COC(=O)NC(C)C [Compound 8a, iso-Propyl 2E,6E-farnesyl carbamate]	1.33
CC(C)=CCC/C(C)=C/CC/C(C)=C/COC(=O)NC1CCCC1 [Compound 8c, Cyclopentyl 2E, 6E-farnesyl carbamate]	1.46

Structure (SMILES)	HSP70 level, ELISA signal (absence of compounds normalized as 1.00)
CC(C)=CCC/C(C)=C/CC/C(C)=C/COC(=O)NC1CCCCCC1 [Compound 8d, Cycloheptyl 2E, 6E-farnesyl carbamate]	1.33
CC(C)=CCC/C(C)=C/CC/C(C)=C/COC(=O)NC12CC3CC(CC(C3)C1)C2 [Compound 8e, Adamantyl 2E, 6E-farnesyl carbamate]	1.09
CCNC(=O)OC/C=C(\C)CC/C=C(\C)CCC=C(C)C [Compound 8h, Ethyl 2E, 6E-farnesyl carbamate]	0.86
CCOC(=O)CNC(=O)OC/C=C(\C)CC/C=C(\C)CCC=C(C)C [Compound 8k, Carboethoxymethyl 2E, 6E-farnesyl carbamate]	0.99
CC(C)=CCC/C(C)=C/CC/C(C)=C/COC(=O)Nc1ccc(C)cc1 [Compound 8l, p-Tolyl 2E, 6E-farnesyl carbamate]	1.03
CC(C)=CCC/C(C)=C/CC/C(C)=C/COC(=O)Nc1ccc(C(F)(F)F)cc1 [Compound 8n, p-Trifluoromethylphenyl 2E, 6E-farnesyl carbamate]	1.02
CCNC(=S)OC/C=C(\C)CC/C=C(\C)CCC=C(C)C [Compound 9a, Ethyl 2E, 6E-farnesyl thiocarbamate]	0.94
CCC(C)NC(=S)OC/C=C(\C)CC/C=C(\C)CCC=C(C)C (stereo not drawn) [Compound 9b, sec-Butyl 2E, 6E-farnesyl thiocarbamate]	0.99
CCCCNC(=S)OC/C=C(\C)CC/C=C(\C)CCC=C(C)C [Compound 9c, n-Butyl 2E, 6E-farnesyl thiocarbamate]	0.96
CC(C)=CCC/C(C)=C/CC/C(C)=C/COC(=S)NC1CC1 [Compound 9d, Cyclopropyl 2E, 6E-farnesyl thiocarbamate]	0.95
CC(C)=CCC/C(C)=C/CC/C(C)=C/COC(=S)NCCCN1CCOCC1 [Compound 9k, Morpholinyl-N-3′-propyl 2E, 6E-farnesyl thiocarbamate]	0.97
CNC(=S)OC/C=C(\C)CC/C=C(\C)CC/C=C(\C)CCC=C(C)C [Compound 10a, Methyl 2E,6E,10E-geranylgeranyl thiocarbamate]	1.17
CCC(C)NC(=S)OC/C=C(\C)CC/C=C(\C)CC/C=C(\C)CCC=C(C)C (stereo not drawn) [Compound 10c, sec-Butyryl 2E,6E,10E-geranylgeranyl thiocarbamate]	1.53
CC(=O)NC(=S)OC/C=C(\C)CC/C=C(\C)CC/C=C(\C)CCC=C(C)C [Compound 10g, Acetyl 2E,6E,10E-geranylgeranyl thiocarbamate]	1.60
CCCCCCNC(=S)OC/C=C(\C)CC/C=C(\C)CC/C=C(\C)CCC=C(C)C [Compound 10h, n-Hexyl 2E,6E,10E-geranylgeranyl thiocarbamate]	1.58
CC(C)=CCC/C(C)=C/CC/C(C)=C/c1cnco1 [Compound 12, 5-((1E,5E)-2,6,10-trimethylundeca-1,5,9-trien-1-yl)oxazole]	1.01
